Experimental data published in patent US12551576B2, “Chemiluminescent probes” (The General Hospital Corporation, priority 2020, dated 2026).
Several values for one entry are separate records, joined by “and”; a condition that tells them apart may be missing. Equal entries are not always repeated. Entries after “also recorded” stand apart in the source; their conditions may differ. Where two headings read alike, the source gives them in different places.

Columns and labels:
Aβ40 aggregates [1] = molecular target: T1, Aβ40 aggregates (Homo sapiens, UniProt P05067); test: In vivo mimic demonstration of DAS-CRET; conditions: FIG. 8E, subcutaneous injection in nude mouse
Method: After solutions were prepared, one female 8-month old nude mouse was anesthetized, and the left hind limb was subcutaneously injected with the first solution and the right hind limbs was subcutaneously injected with the second solution. The mouse was then placed into the IVIS imaging chamber and images were captured from the dorsal side and from the ventral side with the open filter (500 nm-840 nm) and specific filters.
Target sequence in this assay (P05067 672-711): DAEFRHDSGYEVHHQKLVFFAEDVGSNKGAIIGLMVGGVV

[2] = test system: beta-sheet misfoldons in mixed HC and disease serum; design: species or system human
PA-E2 = test: Chemiluminescence detection of model aggregates (PA-E2 vs PA-E); type: binding
amylin = amylin (Homo sapiens, UniProt P10997); type: binding
Sequence of amylin (P10997 34-70 limits assumed): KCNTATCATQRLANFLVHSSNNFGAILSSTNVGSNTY

PA-K2 = test: Chemiluminescence detection of model beta-sheet aggregates (PA-K2); type: binding
Transthyretin = Transthyretin (Homo sapiens, UniProt P02766); test: Aβ aggregates incubated with transthyretin
Aβ40 aggregates [3] = molecular target: T1, Aβ40 aggregates; test: In vitro chemiluminescence study with Aβ aggregates in PBS; type: binding
Target sequence in this assay (P05067 672-711 limits assumed): as the sequence (P05067 672-711) above

prion = type: binding
PA-K = test: Chemiluminescence detection of model aggregates (PA-K); type: binding; conditions: ADLumin-1 2.5 μM, PA-K 0.5 mg/ml
Apolipoprotein A-I (APO) = Apolipoprotein A-I (APO) (Homo sapiens, UniProt P02647); test: Aβ aggregates incubated with APO
Sequence of Apolipoprotein A-I (APO) (P02647 25-267): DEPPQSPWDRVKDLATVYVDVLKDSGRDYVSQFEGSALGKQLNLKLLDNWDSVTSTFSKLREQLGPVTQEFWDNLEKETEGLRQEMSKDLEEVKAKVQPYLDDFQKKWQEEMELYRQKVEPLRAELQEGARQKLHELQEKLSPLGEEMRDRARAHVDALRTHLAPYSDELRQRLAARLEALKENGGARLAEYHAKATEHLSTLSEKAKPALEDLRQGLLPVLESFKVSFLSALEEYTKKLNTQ

[4] = Fluorescence and chemiluminescence spectral studies; type: physicochemical
Method: Materials and Methods: reagents used for the synthesis were purchased from Sigma-Aldrich and used without further purification. Column chromatography was performed on a glass column slurry-packed with silica gel (60 Å, […]; SiliCycle Inc.). Recombinant Aβ peptide (1-40/42) were purchased from rPeptide (A-1163-1). Aβ aggregates for in vitro studies were generated by slow stirring of Aβ40 in PBS buffer for 3 days at room temperature. ^1H and ^13C NMR spectra were recorded at 500 MHz and 125 MHz on Bruker spectrometers in CDCl3, CD3OD or DMSO-d6 solutions at room temperature with tetramethylsilane (TMS, δ=0) as an internal standard. Liquid chromatography-mass spectrometry (LC-MS) was performed using an Agilent 1200 Series apparatus with an LC/MSD trap and Daly conversion dynode detector with UV detection at 254 nm. Fluorescence measurements were carried out using an F-7100 fluorescence spectrophotometer (Hitachi). Transgenic female 5×FAD mice and age-matched wild-type female mice were purchased from Jackson Laboratory. All animal experiments were approved by the Institutional Animal Use and Care Committee at Massachusetts General Hospital. The IVIS Spectrum animal imaging system (PerkinElmer) was used for in vitro and in vivo imaging.
Fluorescence spectral studies: Normally, all chemiluminescent molecules are fluorescent. The excitation and emission spectra of ADLumin-X were recorded and the emission peak of ADLumin-1 was around 590 nm (FIG. 1D) in DMSO, which is considerably longer than most of the commercially available chemiluminescence probes. The emission of ADLumin-2 is longer than that of ADLumin-1, due to its additional double-bond. (the emission peak of ADLumin-2 was 20 nm longer). […] Based on this fact, ADLumin-1 was used throughout this example, due to its high QY.
Chemiluminescence spectral studies: ADLumin-1 is stable in PBS buffer and organic solvents, including acetonitrile, dichloromethane and methanol. […] Without being bound by any theory, it is believed that the luminescence was due to the auto-oxidation of ADLumin-1. Although the mechanism of chemiluminescence of IPO derivatives has been studied, the mechanism of auto-oxidation has been rarely explored. In the course of the experiments, ADLumin-1 emitted very strong luminescence in pure DMSO (FIG. 2b). Unexpectedly, if the ADLumin-1 DMSO solution was stirred, even stronger luminescence can be detected (3.4-fold in FIG. 2b). Without being bound by any theory, it is believed that the luminescence was related to oxygen levels in DMSO. […] However, the increasing-fold decreased with cycles (FIG. 2c). […] Since no ROS were added into the DMSO solution, it is reasonable to infer that the auto-oxidation of ADLumin-1 was oxygen-level dependent. It is worthy to note that green fluorescent protein and luciferase/luciferin also dependent on oxygen for their proper imaging functions.

[5] = molecular target: Aβ aggregates in mouse brain homogenate (Homo sapiens, UniProt P05067); test: In vitro chemiluminescence study in brain homogenate; type: binding
Sequence of Aβ aggregates in mouse brain homogenate (P05067 672-711 limits assumed): as the sequence (P05067 672-711) above

[6] = molecular target: Aβ40 aggregates, monomers and oligomers in human serum (Homo sapiens, UniProt P05067); test: Chemiluminescence of Aβ40 species incubated with non-diluted human serum
Sequence of Aβ40 aggregates, monomers and oligomers in human serum (P05067 672-711 limits assumed): as the sequence (P05067 672-711) above

[7] = ROS sensitivity of ADLumin-1; type: physicochemical; conditions: H2O2, ClO4−, TBHP, KO2; compared to O2 bubbling
Method: Oxygen and ROS sensitivity of ADLumin-1: A 100.0 μL DMSO solution of ADLumin-1 (200.0 μM) was added to a well in a 96-well plate. One group was bubbled with oxygen for 5 seconds at different time points, and the control group was sealed without bubbling. Once the bubbling was over, the plate was subjected to chemiluminescence intensity recording with the IVIS system with the open filter setting (500 nm-840 nm). For ROS tests, A PBS solution (240 μL) was incubated in an Eppendorf tube. To each of above tubes, different ROS (H2O2 30 μL, […] 30 μL, TBHP 30 μL and KO2 30 μL) was added, respectively. Then, a solution of ADLumin-1 in DMSO (30 μL, 250.0 μM) was added. Finally, 100.0 μL of the resulting solution was transferred into a well of 96-well plate, and triplicated samples were prepared. Chemiluminescence images were obtained with an IVIS system under the open filter (500 nm-840 nm).

Aβ40 aggregates [8] = molecular target: T1, Aβ40 aggregates; test: Binding affinity of ADLumin-1 with Aβs (fluorescence titration); conditions: ADLumin-1 250 nM, Aβ40 aggregates 0 to 8 μM, fluorescence at 515 nm
Target sequence in this assay (P05067 672-711 limits assumed): as the sequence (P05067 672-711) above

[9] = chemiluminescence / bioluminescence spectra

Cc1nc2c[nH]c(/C=C/C=C/c3ccc(N(C)C)cc3)cn-2c1=O [ADLumin-1, 6-((1E,3E)-4-(4-(dimethylamino)phenyl)buta-1,3-dien-1-yl)-2-methylimidazo[1,2-a]pyrazin-3(7H)-one]
SNR (ROI1/ROI2) (Aβ40 aggregates [1]): > 2000 and 2189 | total signal of mixed group vs sum of 90% HC serum and 10% AD serum [2]: 1.66 fold | signal mixture of HC serum and disease serum vs HC serum ([2]; 10% diabetes serum): 3.34 fold | signal mixture of HC serum and disease serum vs HC serum ([2]; 10% multiple sclerosis serum): 7.24 fold | signal mixture of HC serum and disease serum vs HC serum ([2]; 10% pulmonary fibrosis serum): 4.60 fold | signal mixture of HC serum and disease serum vs HC serum ([2]; 10% rheumatoid arthritis serum): 6.64 fold | chemiluminescence signal mixed group vs 100% HC serum ([2]; 90% HC serum and 10% AD serum): 7.75 fold | chemiluminescence intensity PA-E2 group vs PA-E group (PA-E2): 4.39 fold | largest chemiluminescence difference with aggregates (amylin): 4.20 fold | intensity ratio of PA-K2/PA-K (PA-K2): about 47.5 fold | low limit of detection (LOD) lower than that of ThT (PA-K2): 100 fold | chemiluminescence signal increase vs ADLumin-1 only in PBS (PA-K2; ADLumin-1 2.5 μM, PA-K2 0.5 mg/ml, PBS): 101 fold | peptide concentration range of concentration dependent intensity (PA-K2; PA-K2 and PA-E2): 0.001 to 1.0 mg/mL | peptide concentration at which PA-K and PA-K2 are differentiated (PA-K2; chemiluminescence): 0.001 mg/mL | ADLumin-1 concentration range of linear response (PA-K2; with 0.5 mg/ml PA-K2): 0.001 to 0.1 mg/mL | intensity Aβ/transthyretin group vs control group (Transthyretin): higher intensity | chemiluminescence signal, wells with Aβs vs wells without Aβs (Aβ40 aggregates [3]; IVIS imaging system, open filter, 96-well plate): 104 fold | chemiluminescence intensity increase upon incubation with Aβs (Aβ40 aggregates [3]; PBS buffer with 2% DMSO, at 540 nm): about 216 fold | amplification of chemiluminescence intensity upon mixing with Aβs in vitro (Aβ40 aggregates [3]; in vitro, summary statement): 216 fold and > 200 fold | largest chemiluminescence difference with aggregates (prion): 2.22 fold | signal decay T½ (prion): 11.36 min | chemiluminescence signal increase vs ADLumin-1 only in PBS (PA-K): 2.49 fold | intensity Aβ/APO group vs control group (Apolipoprotein A-I (APO)): higher intensity | stability ([4]; PBS buffer and organic solvents, including acetonitrile, dichloromethane and methanol): stable | emission peak (FWHM comparison) [4, 9]: 540 nm | full width at half-maximum (FWHM) [4, 9]: 94 nm | fluorescence emission peak ([4]; in DMSO): around 590 nm | chemiluminescence emission peak ([4]; in the presence of 10% DMSO): around 540 nm | Aβ concentration range with linear intensity increase [5]: 0 to 12.5 µM | chemiluminescence signal, Aβ group vs no Aβ ([5]; Aβ aggregates 12.5 μM): about 11.6 fold | chemiluminescence ratio of the Aβ group and the control group ([6]; Aβ40 aggregate 2.5 μM): about 3.43 fold | chemiluminescence intensity Aβ group vs control group ([6]; Aβ monomers): 1.96 fold | chemiluminescence intensity Aβ group vs control group ([6]; Aβ oligomers): 1.71 fold | chemiluminescence response towards ROS species [7]: no significant changes; also recorded: considerably low; also recorded: relatively small | Kd (Aβ40 aggregates [8]): 2100 nM
